Results published in patent US11389483B2, “Methods for treating pain” (Duke University, priority 2015, dated 2022).

Columns and labels:
BMSCs = experiment: Transwell migration (chemotaxis) assay; type: cell-based, mice
Experimental: The migratory ability of BMSCs was determined using Transwell plates (Corning Costar, 6.5 mm in diameter with 8 μm pore filters). In brief, 5×10^4 cells in 100 μL, serum-free medium were added into the upper well, and 600 μL, of CXCL12-containing medium was placed in the lower well of a Transwell plate. Following incubation for 5 h (37° C., 100% humidity, 5% CO2 in air), the number of cells that had migrated to the lower side of the filter was counted under a light microscope at ×200 magnification, and the data were presented as the average number of migratory in five randomly-selected fields. Each experiment was performed in triplicate, and the data were averaged for statistical analysis.

CCI mice [1] = experiment: CCI neuropathic pain model: mechanical allodynia (von Frey) and thermal hyperalgesia (Hargreaves); type: in vivo
Text: Adult CD1 mice (male, 25-32 g) were purchased from Charles River Laboratories and used for behavioral studies and primary cultures of BMSCs. Neuropathic pain was produced by chronic constriction injury of the sciatic nerve (CCI) (Bennett, et al. J. Neurosci. 1998, 18, 3059-3072) and spared nerve injury (SNI) (Decosterd, et al. Pain 2000, 87, 149-158). For producing the CCI model animals were anesthetized with isoflurane, the left sciatic nerve was exposed, and three ligatures (7-0 prolene) were placed around the nerve proximal to the trifurcation with one millimeter between each ligature. The ligatures were loosely tied until a short flick of the ipsilateral hind limb was observed. Animals in the sham group received surgery identical to those described but without nerve ligation. Under isoflurane anesthesia, the SNI surgery was also performed with a 5.0 silk tight ligation of the tibial and common peroneal nerves followed by transection and removal of a 3-5 mm nerve portion. However, the third peripheral branch of the sciatic nerve, the sural nerve, remained intact, and any contact or stretch to this nerve was carefully avoided. All the animal procedures performed in this study were approved by the Animal Care Committee of Duke University Medical Center. TGF-β1, […] neutralizing antibody, TNF and CXCL12/SDF-1α were purchased from R&D, LPS from Sigma. AMD3100 (CXCR4 antagonist) and SB431542 (TGF-β1R inhibitor) were purchased from Selleckchem. IL-10 neutralizing antibody was purchased from Biolegend, and normal Rabbit IgG were purchased from Santa Cruz. For intrathecal injection, spinal cord puncture was made with a 30-G needle between the L5 and L6 level to deliver reagents (10 μL) or cells (1 or 2.5×10^5 cells in 10 μL PBS) to the cerebral spinal fluid (Hylden, et al. Eur. J. Pharmacol. 1980, 67, 313-316). […] Cells were then washed three times with PBS and resuspended. Animals were habituated to the testing environment daily for at least 2 days before baseline testing. The room temperature and humidity remained stable for all experiments. All the behaviors were tested blindly. For testing mechanical sensitivity, mice were confined in boxes placed on an elevated metal mesh floor and their hindpaws were stimulated with a series of von Frey hairs with logarithmically increasing stiffness (0.02-2.56 g, Stoelting), presented perpendicularly to the central plantar surface. The 50% paw withdrawal threshold was determined by Dixon's up-down method. Mechanical allodynia after SNI was also assessed by frequency response (expressed as percentage response) to a low-threshold von Frey hair (0.16 g, 10 times). […] The falling latency was recorded and averaged.

small-sized DRG neurons = experiment: Whole-cell patch clamp recordings of action potentials in whole mount DRG; type: cell-based, mice
Experimental: The L4-L5 whole mount DRGs were carefully removed from the vertebral column and placed in cold oxygenated ACSF as detailed in Lee et al. (Cell 2014, 157, 1393-1404). The connective tissue was gently removed under a microscope and the ganglia were digested with a mixture of 1.0 mg/mL protease and 1.6 mg/mL collagenase (Sigma) for 30 min at 37° C. The ganglion was transferred into a holding chamber containing normal Mg2+-free ACSF with CNQX (2 μM) bubbled with 95% O2 and 5% CO2 at room temperature. Whole-cell current clamp recordings were performed at room temperature (28° C.) to measure action potentials with Axopatch-200B amplifier (Axon Instruments). The patch pipettes were pulled from borosilicate capillaries (Chase Scientific Glass Inc.). When filled with the pipette solution, the resistance of the pipettes was 4-5 MΩ. The recording chamber (300 μL) was continuously superfused (3-4 mL/min). Series resistance was compensated for (>80%), and leak subtraction was performed. Data were low-pass-filtered at 2 KHz, sampled at 10 KHz. The pClamp10 (Axon Instruments) software was used during experiments and analysis.

[2] = tested on: PAX-induced mechanical allodynia in mice; experiment: Paclitaxel (PAX)-induced neuropathic pain model: paw withdrawal frequency to von Frey hair (0.4 g); type: in vivo; conditions: i.t. TGF-β1 100 ng, 7 weeks after first paclitaxel injection
Experimental: PAX-induced neuropathic pain (mechanical allodynia) was evaluated by paw withdrawal frequency to von Frey hair (0.4 g) stimuli (10×). Intrathecal BMSCs (2.5×10^5) produced a rapid (1 week) and long lasting (7 weeks) reduction in PAX-induced mechanical allodynia (FIG. 19B).
The analgesic efficacy of TGF-β1 was also tested in a PAX-induced neuropathic pain model. […] PAX-induced neuropathic pain was evaluated by paw withdrawal frequency to von Frey hair (0.4 g) stimuli (10×). Intrathecal TGF-β1 transiently reversed PAX-induced mechanical allodynia for 3 hours following injection (FIG. 20).

[3] = tested on: lamina IIo neurons of spinal cord slices; experiment: Patch-clamp recordings of sEPSCs in spinal cord slices; type: cell-based, mice
Experimental: A portion of the lumbar spinal cord (L4-L5) was removed from mice (4-7 weeks old) under urethane anesthesia (1.5-2.0 g/kg, i.p.) and kept in pre-oxygenated ice-cold Krebs solution (Xu, et al. Ann. Neurol. 2013, 74, 490-495). Transverse slices (400-600 μm) were cut on a vibrating microslicer. The slices were perfused with Kreb's solution (8-10 mL/min) that was saturated with 95% O2 and 5% CO2 at 36° C. for at least 1-3 h prior to experiment. The Kreb's solution contained (in mM): NaCl 117, KCl 3.6, CaCl2 2.5, MgCl2 1.2, NaH2PO4 1.2, NaHCO3 25, and […]. The whole-cell patch-clamp recordings were made from lamina IIo neurons in voltage-clamp mode. Patch pipettes were fabricated from thin-walled, borosilicate, glass-capillary tubing (1.5 mm outer diameter; World Precision Instruments). After establishing the whole-cell configuration, neurons were held their holding potentials at −70 mV for recording sEPSCs. The resistance of a typical patch pipette is 5-10 M. The internal solution contained the following (in mM): 135 potassium gluconate, 5 KCl, 0.5 CaCl2, 2 MgCl2, 5 EGTA, 5 HEPES, and 5 ATP-Mg. Membrane currents were amplified with an Axopatch 200 A amplifier (Molecular Devices) in voltage-clamp mode. Signals were filtered at 2 kHz and digitized at 5 kHz. Data were stored with a personal computer using pClamp 6 software and analyzed with Mini Analysis (Synaptosoft).

CCI mice [4] = experiment: Two-chamber conditioned place preference test for ongoing pain after CCI; type: in vivo; conditions: clonidine 10 μg i.t.
Text: To test spontaneous/ongoing pain measurement, a single trial conditioning protocol for conditioned place preference (CPP) was used as described in King et al. (Nat. Neurosci. 2009, 12, 1364-1366) and Xu et al. (Ann. Neurol. 2013, 74, 490-495). All mice underwent a 3-day pre-conditioning habituation and animal behavior was video-recorded. […] On the conditioning day, mice received the vehicle (saline) control paired with a randomly chosen chamber in the morning, and then the appropriate treatment (clonidine, 10 μg, i.t.) paired with the other chamber 4 h later. Chamber pairings were counterbalanced. On the test day, 20 h following the afternoon pairing, mice were placed in the CPP box with access to both chambers and the behavior was recorded for 15 min and analyzed by ANY-maze software for chamber preference.

TGF-β1 = experiment: ELISA of TGF-β1 release and expression in BMSCs cultures; type: cell-based, mice; conditions: TNF 10 ng/mL, 60 min, LPS 100 ng/mL
Experimental: Tgfβ1 siRNA (Catalog: J-040652-06), Cxcr4 siRNA (Catalog: J-060184-06) and Non-targeting siRNA (Catalog: D-0018100-01-20) were purchased from Thermo Scientific Dharmacon. SiRNA was dissolved in RNase-free water at 1 μg/μL as stock solution and mixed with transfection reagent polyethyleneimine (PEI, Fermentas) and normal saline before use. Specifically, 1 μg siRNA was dissolved in 3.3 μL of PEI and 66 μL of normal saline (Kawasaki, et al. Nat. Med. 2008, 14, 331-336).
Primary cultures of BMSCs were obtained from CD-1 donor mice under aseptic conditions. The mice were sacrificed with isoflurane and the both ends of the tibiae and femurs were cut off by scissors. A syringe fitted with 20-gauge needle was inserted into the shaft of the bone, and bone marrow was flushed out with culture medium (modified Eagle's medium containing 10% fetal bovine serum, 2 mM L-glutamine, 100 U/mL penicillin and 100 μg/mL streptomycin, 250 μg/mL Fungizone, all obtained from Gibco). After the centrifuge at 1000 g for 5 min at room temperature, the pellet was resuspended in 2 mL fresh warm culture medium and mechanically dissociated, and the suspension was passed through a 40-μm cell strainer to remove debris. After the centrifuge the cells were resuspended at a concentration of 1×10^6 cells/mL. The cells were then incubated at 37° C. in 5% CO2 in 75 cm2 cell culture flasks or 6-well culture plates. […]

IL-10 = experiment: ELISA of IL-10 release in BMSCs culture medium; type: cell-based, mice; conditions: TNF 10 ng/mL, 60 min, LPS 100 ng/mL
Experimental: Primary cultures of BMSCs were obtained from CD-1 donor mice under aseptic conditions. The mice were sacrificed with isoflurane and the both ends of the tibiae and femurs were cut off by scissors. A syringe fitted with 20-gauge needle was inserted into the shaft of the bone, and bone marrow was flushed out with culture medium (modified Eagle's medium containing 10% fetal bovine serum, 2 mM L-glutamine, 100 U/mL penicillin and 100 μg/mL streptomycin, 250 μg/mL Fungizone, all obtained from Gibco). After the centrifuge at 1000 g for 5 min at room temperature, the pellet was resuspended in 2 mL fresh warm culture medium and mechanically dissociated, and the suspension was passed through a 40-μm cell strainer to remove debris. After the centrifuge the cells were resuspended at a concentration of 1×10^6 cells/mL. The cells were then incubated at 37° C. in 5% CO2 in 75 cm2 cell culture flasks or 6-well culture plates. After 24 hours, cells were washed gently with PBS and replaced with fresh culture media. Adherent cells were further cultured with a medium change every 2-3 days until confluence was reached (also see FIG. 11).
Mouse TGF-β1, IL-10, and CXCL12/SDF-1α ELISA kits were purchased from R&D Systems. ELISA was performed using BMSCs culture medium or cell lysate, CSF, and DRG tissue. Cultured cells and DRGs were homogenized in a lysis buffer containing protease and phosphatase inhibitors. […]

c1cc(CN2CCCNCCNCCCNCC2)ccc1CN1CCCNCCNCCCNCC1 [AMD3100]
CXCL12-induced migration of BMSCs (BMSCs; AMD3100 5 mg/L 30 min): blocked

CXCL12: chemokine, ligand of CXCR4, purchased from R&D
migration of BMSCs in vitro (BMSCs; CXCL12 0-100 ng/ml): induced migration

TGF-β1: exogenous recombinant TGF-β1 purchased from R&D, given intrathecally or superfused
late-phase neuropathic pain on post-CCI day 21 (CCI mice [1]; i.t. TGF-β1): effectively inhibited | mechanical allodynia and thermal hyperalgesia at 5 days after CCI (CCI mice [1]; i.t. TGF-β1 2 ng and 10 ng): dose-dependently inhibited | time after which the reversal of allodynia/hyperalgesia recovered (CCI mice [1]; i.t. TGF-β1 2 and 10 ng, 5 days after CCI): 24 h | CCI-induced increase in spike frequency in small-sized DRG neurons (small-sized DRG neurons; TGF-β1 2 or 10 ng/mL): dose-dependently suppressed | time to suppression of the spike frequency increase (small-sized DRG neurons; TGF-β1 2 or 10 ng/mL): 2 to 5 min | duration of reversal of PAX-induced mechanical allodynia following injection [2]: 3 h | sEPSC frequency and amplitude in sham mice ([3]; superfusion 10 ng/mL): no effects | time to blockade of CCI-induced sEPSC increases ([3]; superfusion 2 or 10 ng/mL): 2 min | CCI-induced increases in sEPSC frequency and amplitude ([3]; superfusion 2 or 10 ng/mL, slices from CCI mice (4 d)): blocked

Clc1cccc(Cl)c1N=C1NCCN1 [clonidine]
time in chamber paired with drug versus chamber paired with vehicle (CPP) (CCI mice [4]): spent more time

TNF-α
TGF-β1 release of BMSCs on exposure (TGF-β1): significantly increased | IL-10 release of BMSCs on exposure (increase) (IL-10): not

NC(=O)c1ccc(-c2nc(-c3ccc4c(c3)OCO4)c(-c3ccccn3)[nH]2)cc1 [SB431542, reference compound]
effect on the anti-allodynic and anti-hyperalgesic effects of TGF-β1 (10 ng) (CCI mice [1]; SB431542 100 pmol i.t., CCI mice): eliminated | effect on the TGF-β1 suppression of spike frequency (small-sized DRG neurons; SB431542 10 μM): reversed | effect on the TGF-β1 (10 ng/mL) blockade of sEPSC increases ([3]; SB431542 10 μM): abrogated
